The test system of test [1] is WT cell line SK-BR-3. In words: Cell Proliferation Assay (CellTiter-Glo), SK-BR-3. Format: cell-based. As to conditions: Homo sapiens, 72 h; SK-BR-3, 3 days treatment. Here is the method: The SK-BR-3 (ATCC, HTB-30) cell line was obtained from the American Type Culture Collection. Cells were maintained in McCoy' 5A medium (Gibco, REF #16600108) supplemented with 10% Fetal Bovine Serum. Cultures were maintained in a humidified incubator at 37° C. under 5% CO2/95% air.
Cell Proliferation Assay. PI3Kα H1047R mutated cell line T-47D cells and WT cell line SK-BR-3 were seeded at a density of 3×10^3 cells per well in 96 well plate (Xinyou Biotechnology, 062096) in 95 μL of culture medium, overnight. Compounds dissolved in 10 mM stock solutions in DMSO were serially diluted 1:3 in DMSO to generate a 9-point dilution series and plated using an INTEGRA ASSIST Plus pipetting robot. A 20× intermediate compound dilution plate in RPMI1640 medium (200 M starting compound concentration in 2% DMSO) was then prepared. Five μL of intermediate serially diluted compounds were added to the cell plate to final concentrations ranging from […] to 1 nM in 0.1% DMSO. 0.1% DMSO alone was used to establish the maximum signal and medium without cells was for minimum signal. After 3 days treatment, equilibrated the plate and its contents at room temperature for approximately 30 minutes. Added 30 μL CellTiter-Glo® Reagent (Promega, REF #G7571) to each well. Then mixed contents for 5 min on plate shaker to induce cell lysis. Incubated at room temperature for 10 minutes to stabilize luminescent signal. The plates were read on PHERAstar FSX Microplate reader using standard luminescence settings.
Relative IC50 values were determined using luminescence units by calculating percent inhibition with respect to the in-plate “MIN” (medium only) and “MAX” (0.1% DMSO) controls. The data were analyzed using a 4-parameter nonlinear logistic equation (four-parameter logistic concentration-response curve): Y=bottom+[(top−bottom)/1+(X/IC50) slope] • where Y=% inhibition, X=concentration of inhibitor, bottom=minimum value of y attained by curve-fit, top=maximum value of y attained by curve-fit and slope=steepness of curve at the IC50.
A general note: In ATP-based viability assays light output follows the ATP content of the culture.

Test [2] deals with PI3Kα (p110/p85) kinase (wild type, "WT") (Homo sapiens, UniProt P42336). In words: PI3Kα (p110/p85) kinase ADP-Glo Assay. Format: biochemical. The following applies: 25 uM ATP. Summed up: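 IC50 values come from a four-parameter logistic fit of ADP-Glo chemiluminescence, reflecting ADP formed. Enzyme, lipid substrate and […] compound were preincubated 30 min at room temperature, then 25 µM ATP was added for a 120 min reaction in 50 mM HEPES pH7.5, 3 mM MgCl2.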
PI3Kα (p110/p85) kinase (wild type, "WT"), sequence (P42336 whole entry): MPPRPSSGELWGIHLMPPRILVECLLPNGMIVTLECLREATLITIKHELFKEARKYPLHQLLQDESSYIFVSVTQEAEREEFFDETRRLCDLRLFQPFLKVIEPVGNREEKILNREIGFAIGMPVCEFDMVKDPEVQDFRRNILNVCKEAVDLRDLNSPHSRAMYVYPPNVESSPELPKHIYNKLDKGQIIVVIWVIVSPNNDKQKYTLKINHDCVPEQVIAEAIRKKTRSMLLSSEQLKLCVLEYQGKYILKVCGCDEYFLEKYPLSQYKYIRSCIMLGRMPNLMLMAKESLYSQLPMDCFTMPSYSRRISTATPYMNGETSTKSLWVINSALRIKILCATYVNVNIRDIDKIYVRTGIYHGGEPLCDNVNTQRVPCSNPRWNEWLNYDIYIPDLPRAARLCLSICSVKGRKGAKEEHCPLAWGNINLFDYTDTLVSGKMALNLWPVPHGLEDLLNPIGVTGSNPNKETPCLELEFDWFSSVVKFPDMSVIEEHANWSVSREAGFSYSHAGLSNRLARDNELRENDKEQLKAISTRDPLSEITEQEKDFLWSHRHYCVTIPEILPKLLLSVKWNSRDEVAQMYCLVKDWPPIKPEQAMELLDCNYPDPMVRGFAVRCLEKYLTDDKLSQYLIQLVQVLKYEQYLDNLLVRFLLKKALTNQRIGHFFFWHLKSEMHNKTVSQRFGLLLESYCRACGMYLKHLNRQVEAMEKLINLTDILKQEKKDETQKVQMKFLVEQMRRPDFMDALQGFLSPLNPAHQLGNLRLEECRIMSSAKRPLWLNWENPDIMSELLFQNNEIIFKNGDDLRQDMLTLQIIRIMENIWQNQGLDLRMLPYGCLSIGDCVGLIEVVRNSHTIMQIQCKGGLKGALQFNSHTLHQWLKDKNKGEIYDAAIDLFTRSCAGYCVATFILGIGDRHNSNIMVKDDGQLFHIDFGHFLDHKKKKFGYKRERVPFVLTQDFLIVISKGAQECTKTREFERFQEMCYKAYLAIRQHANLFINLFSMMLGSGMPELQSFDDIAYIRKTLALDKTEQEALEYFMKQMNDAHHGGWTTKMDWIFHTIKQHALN
PI3Kα (p110/p85) kinase (wild type, "WT"), sequence (P27986 whole entry partner): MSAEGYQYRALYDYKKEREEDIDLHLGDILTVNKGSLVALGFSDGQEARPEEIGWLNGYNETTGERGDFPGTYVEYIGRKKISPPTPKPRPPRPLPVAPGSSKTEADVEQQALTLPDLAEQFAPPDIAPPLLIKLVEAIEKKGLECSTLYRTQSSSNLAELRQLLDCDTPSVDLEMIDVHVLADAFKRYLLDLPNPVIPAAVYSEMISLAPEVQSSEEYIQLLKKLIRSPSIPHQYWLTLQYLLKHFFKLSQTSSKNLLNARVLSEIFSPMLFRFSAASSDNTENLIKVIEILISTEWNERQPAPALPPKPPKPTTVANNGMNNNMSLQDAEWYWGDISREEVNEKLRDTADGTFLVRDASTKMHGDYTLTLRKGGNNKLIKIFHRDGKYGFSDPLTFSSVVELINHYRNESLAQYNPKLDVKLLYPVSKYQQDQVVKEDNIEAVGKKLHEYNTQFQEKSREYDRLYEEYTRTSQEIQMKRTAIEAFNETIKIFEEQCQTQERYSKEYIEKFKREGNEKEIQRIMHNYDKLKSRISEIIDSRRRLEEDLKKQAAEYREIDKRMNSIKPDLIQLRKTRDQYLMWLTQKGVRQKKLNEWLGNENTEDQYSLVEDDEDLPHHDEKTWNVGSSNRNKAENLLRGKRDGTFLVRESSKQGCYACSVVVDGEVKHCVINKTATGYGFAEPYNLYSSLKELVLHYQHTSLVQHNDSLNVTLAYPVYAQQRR

The subject of test [3] is WT cell line SK-BR-3. Description: Phospho-AKT (Ser473) Inhibition Assay (HTRF), SK-BR-3. Format: cell-based. The following applies: Homo sapiens; SK-BR-3, 1 hour treatment; read-out: p-AKT Inhibition assay (S473) IC50 SK-BR-3. Summed up:
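SK-BR-3 (PI3Kα WT) cells seeded overnight in MEM with insulin, then treated 1 h with 11-point 1:3 dilutions (10 μM to 0.1 nM, 0.1% DMSO). Lysates read for phospho-AKT Ser473 by HTRF after 4 h antibody incubation at room temperature. IC50 from 4-parameter fit, % inhibition normalized to DMSO (max) and 10 μM GDC0077 (min).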
In general terms: In TR-FRET formats the signal depends on donor and acceptor labels being close together.

Test [4] concerns PI3Kα H1047R mutated cell line T-47D cells. Description: Cell Proliferation Assay (CellTiter-Glo), T-47D. Format: cell-based. The following applies: for IC50: Homo sapiens, T47D, 72 h, T-47D, 3 days treatment; for Selectivity: SK-BR-3/T-47D (cell proliferation): cell proliferation IC50 ratio. In short, it runs like this: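 T-47D cells seeded overnight at 3×10^3/well, then exposed 3 days to 9-point 1:3 dilutions, final […] to 1 nM in 0.1% DMSO. CellTiter-Glo luminescence; relative IC50 from percent inhibition versus medium-only and 0.1% DMSO controls, 4-parameter logistic fit.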

The results in this text go back to patent US20260125346A1, “Isoquinolinone Derivatives and 4H-Quinolizinone Derivatives and Pharmaceutical Compositions Thereof for the Treatment of Disease” (BeOne Medicines I GmbH, priority 2023, published 2026).

Turning to `Cc1cc(C(C)Nc2cccnc2C(=O)O)c2cc(-c3ccc(F)cc3)n(C)c(=O)c2c1` (centres unmarked) [Example 33, 3-((1-(3-(4-fluorophenyl)-2,7-dimethyl-1-oxo-1,2-dihydroisoquinolin-5-yl)ethyl)amino)picolinic acid], the half-maximal inhibitory concentration (IC50) (in general, the concentration at which inhibition is half-maximal) in test [1] was greater than 10 µM; in test [2], 55.1 µM; in test [3], 9.92 µM; in test [4], 1.59 µM. Moreover, in test [4], the “Selectivity: SK-BR-3/T-47D (cell proliferation)” value (from here on “Selectivity: SK-BR-3/T-47D”) is on record as greater than 6.28.

As to `Cc1cc([C@@H](C)Nc2ccccc2C(=O)O)c2cc(-c3ccc(F)cc3)n(C)c(=O)c2c1` [Example 34, (R)-2-((1-(3-(4-fluorophenyl)-2,7-dimethyl-1-oxo-1,2-dihydroisoquinolin-5-yl)ethyl)amino)benzoic acid], the half-maximal inhibitory concentration (IC50) in test [1] is greater than 10 µM; in test [2] it was 4.18 µM; in test [3], greater than 10 µM; in test [4] it was 0.175 µM. Further, the “Selectivity: SK-BR-3/T-47D” value in test [4] is greater than 57.

Turning to `Cc1cc([C@H](C)Nc2ccccc2C(=O)O)c2cc(-c3ccc(F)cc3)n(C)c(=O)c2c1` [Example 35, (S)-2-((1-(3-(4-fluorophenyl)-2,7-dimethyl-1-oxo-1,2-dihydroisoquinolin-5-yl)ethyl)amino)benzoic acid], the IC50 in test [1] was greater than 10 µM; in test [2], greater than 100 µM; in test [3], greater than 10 µM; in test [4], greater than 10 µM.

With `Cc1cc(C(C)Nc2ccccc2C(=O)O)c2cc(-c3ccccn3)n(C)c(=O)c2c1` (centres unmarked) [Example 36, 2-((1-(2,7-dimethyl-1-oxo-3-(pyridin-2-yl)-1,2-dihydroisoquinolin-5-yl)ethyl)amino)benzoic acid], the IC50 in test [1] is greater than 10 µM; in test [2] it was 50.8 µM; in test [3], greater than 10 µM; in test [4], 1.42 µM. Further, in test [4], the “Selectivity: SK-BR-3/T-47D” value is given as greater than 7.04.

In the case of `Cc1cc(C(C)Nc2ccccc2C(=O)O)c2cc(-c3cccnc3)n(C)c(=O)c2c1` (centres unmarked) [Example 37, 2-((1-(2,7-dimethyl-1-oxo-3-(pyridin-3-yl)-1,2-dihydroisoquinolin-5-yl)ethyl)amino)benzoic acid], the IC50 was greater than 10 µM in test [1], 12.5 µM in test [2], greater than 10 µM in test [3] and 0.172 µM in test [4]. Besides, in test [4], the “Selectivity: SK-BR-3/T-47D” value was greater than 58.3.

For the molecule `Cc1cc(C(C)Nc2ccccc2C(=O)O)c2cc(-c3cncc(F)c3)n(C)c(=O)c2c1` (centres unmarked) [Example 38, 2-((1-(3-(5-fluoropyridin-3-yl)-2,7-dimethyl-1-oxo-1,2-dihydroisoquinolin-5-yl)ethyl)amino)benzoic acid], the IC50 in test [1] is greater than 10 µM; in test [2], 9.81 µM; in test [3], greater than 10 µM; in test [4], 0.216 µM. For the same molecule, the “Selectivity: SK-BR-3/T-47D” value in test [4] is listed as greater than 46.

Regarding `Cc1cc(C(C)Nc2ccccc2C(=O)O)c2cc(-c3ccc4nn(C)cc4n3)n(C)c(=O)c2c1` (centres unmarked) [Example 39, 2-((1-(2,7-dimethyl-3-(2-methyl-2H-pyrazolo[4,3-b]pyridin-5-yl)-1-oxo-1,2-dihydroisoquinolin-5-yl)ethyl)amino)benzoic acid], the IC50 is greater than 10 µM in test [1], 10.6 µM in test [2], 6.17 µM in test [3] and 0.496 µM in test [4]. In test [4], the “Selectivity: SK-BR-3/T-47D” value is given as greater than 20.

As to `Cc1cc([C@@H](C)Nc2ccccc2C(=O)O)c2cc(-c3ccc(-c4cnn(C)c4)cc3)n(C)c(=O)c2c1` [Example 40, (R)-2-((1-(2,7-dimethyl-3-(4-(1-methyl-1H-pyrazol-4-yl)phenyl)-1-oxo-1,2-dihydroisoquinolin-5-yl)ethyl)amino)benzoic acid], the IC50 in test [1] is greater than 10 µM; in test [2] it was 5.12 µM; in test [3], 0.814 µM; in test [4] it was 0.0527 µM. For the same molecule, the “Selectivity: SK-BR-3/T-47D” value in test [4] is greater than 190.

Turning to `Cc1cc(C(C)Nc2ccccc2C(=O)O)c2cc(C#Cc3ccccc3)n(C)c(=O)c2c1` (centres unmarked) [Example 43, 2-((1-(2,7-dimethyl-1-oxo-3-(phenylethynyl)-1,2-dihydroisoquinolin-5-yl)ethyl)amino)benzoic acid], the IC50 in test [1] is greater than 10 µM; in test [2], 2.36 µM; in test [3], 1.64 µM; in test [4] it was 0.62 µM. Besides, in test [4], the “Selectivity: SK-BR-3/T-47D” value was greater than 16.

As to `Cc1cc(C(C)Nc2ccccc2C(=O)O)c2cc(/C=C/c3ccccc3)n(C)c(=O)c2c1` (centres unmarked) [Example 44, (E)-2-((1-(2,7-dimethyl-1-oxo-3-styryl-1,2-dihydroisoquinolin-5-yl)ethyl)amino)benzoic acid], the IC50 was greater than 10 µM in test [1], 1.84 µM in test [2], 2.13 µM in test [3] and 4.77 µM in test [4]. In addition, the “Selectivity: SK-BR-3/T-47D” value in test [4] is reported as greater than 2.1.

Consider `Cc1cc(C(C)Nc2ccccc2C(=O)O)c2cc(C3=Cc4ccccc4CC3)n(C)c(=O)c2c1` (centres unmarked) [Example 45, 2-((1-(3-(3,4-dihydronaphthalen-2-yl)-2,7-dimethyl-1-oxo-1,2-dihydroisoquinolin-5-yl)ethyl)amino)benzoic acid], for which the IC50 is greater than 10 µM in test [1], 7.21 µM in test [2], 2.82 µM in test [3] and 0.841 µM in test [4]. In test [4], the “Selectivity: SK-BR-3/T-47D” value was greater than 12.

`Cc1cc(C(C)Nc2ccccc2C(=O)O)c2cc(C3=CCN(c4ccccc4)CC3)n(C)c(=O)c2c1` (centres unmarked) [Example 46, 2-((1-(2,7-dimethyl-1-oxo-3-(1-phenyl-1,2,3,6-tetrahydropyridin-4-yl)-1,2-dihydroisoquinolin-5-yl)ethyl)amino)benzoic acid]: the IC50 in test [1] is greater than 10 µM; in test [2], 11.1 µM; in test [3], 5.07 µM; in test [4], 0.21 µM. Also, in test [4], the “Selectivity: SK-BR-3/T-47D” value was greater than 48.

For the molecule `Cc1cc(C(C)Nc2cc3ccsc3cc2C(=O)O)c2cc(-c3ccccc3)n(C)c(=O)c2c1` (centres unmarked) [Example 47, 5-((1-(2,7-dimethyl-1-oxo-3-phenyl-1,2-dihydroisoquinolin-5-yl)ethyl)amino)benzo[b]thiophene-6-carboxylic acid], the IC50 in test [1] was greater than 10 µM; in test [2] it was 14.3 µM; in test [3], greater than 10 µM; in test [4], greater than 10 µM.

`Cc1cc(C(C)Nc2c(C(=O)O)sc3ccccc23)c2cc(-c3ccccc3)n(C)c(=O)c2c1` (centres unmarked) [Example 48, 3-((1-(2,7-dimethyl-1-oxo-3-phenyl-1,2-dihydroisoquinolin-5-yl)ethyl)amino)benzo[b]thiophene-2-carboxylic acid]: the IC50 in test [1] was greater than 10 µM; in test [2], 5.16 µM; in test [3], 3.79 µM; in test [4], greater than 10 µM.

As to `Cc1cc(C(C)Nc2ccccc2C(=O)O)c2cc(-c3ccc(C(F)(F)F)cc3)n(C)c(=O)c2c1` (centres unmarked) [Example 49, 2-((1-(2,7-dimethyl-1-oxo-3-(4-(trifluoromethyl)phenyl)-1,2-dihydroisoquinolin-5-yl)ethyl)amino)benzoic acid], the IC50 was greater than 10 µM in test [1], 9.53 µM in test [2], 4.52 µM in test [3] and 0.986 µM in test [4]. For the same molecule, the “Selectivity: SK-BR-3/T-47D” value in test [4] is given as greater than 10.

In the case of `Cc1cc(C(C)Nc2ccccc2C(=O)O)c2cc(-c3cccc(C(F)(F)F)c3)n(C)c(=O)c2c1` (centres unmarked) [Example 50, 2-((1-(2,7-dimethyl-1-oxo-3-(3-(trifluoromethyl)phenyl)-1,2-dihydroisoquinolin-5-yl)ethyl)amino)benzoic acid], the IC50 in test [1] was greater than 10 µM; in test [2] it was 10.4 µM; in test [3], 6.85 µM; in test [4], 3.23 µM. Besides, in test [4], the “Selectivity: SK-BR-3/T-47D” value is recorded as greater than 3.1.
